According to the NIST ThermoML archive (doi:10.1021/je400510j):
Where “and” joins values, the source holds several entries; their conditions need not be identical. Equal values may be shown once.

Settings: Liquid; for mass density: 101.33 kPa, Vibrating tube method; for vapor or sublimation pressure: Closed cell (Static) method

CO[PH](=O)[O-].Cn1cc[n+](C)c1 [1,3-dimethylimidazolium methyl phosphonate]
Settings	mass density [kg/m3]
298.15 K	1230.6
299.45 K	1229.8
300.75 K	1229.3
302.15 K	1228.6
303.45 K	1227.9
304.75 K	1227.3
305.85 K	1226.6
307.15 K	1225.8
308.65 K	1224.9
310.35 K	1223.9
311.75 K	1223.1
313.05 K	1222.4
314.45 K	1221.5
315.85 K	1220.7
317.25 K	1219.9
318.75 K	1219.2

c1ccncc1 [pyridine]
Settings	vapor or sublimation pressure
288.15 K	1.65 kPa and 1.72 kPa
293.15 K	2.2 kPa and 2.25 kPa
298.15 K	2.83 kPa and 2.85 kPa
303.15 K	3.45 kPa

c1ccsc1 [thiophene]
Settings	vapor or sublimation pressure
288.15 K	6.78 kPa and 6.75 kPa
293.15 K	8.7 kPa and 8.74 kPa
298.15 K	10.37 kPa and 10.58 kPa
303.15 K	12.98 kPa

Cc1ccccc1 [toluene]
Settings	vapor or sublimation pressure
288.15 K	2.42 kPa and 2.35 kPa
293.15 K	3.18 kPa and 3.05 kPa
298.15 K	3.84 kPa
303.15 K	4.73 kPa

O [water]
Settings	vapor or sublimation pressure [kPa]
283.15 K	1.27
288.15 K	1.73
293.15 K	2.33
298.15 K	3.2
